Measurements from US20260250250A1, “3-(SULPHONYL OR SULFONIMIDOYL)PROP-2-EN-1-YL]-2-OXO-1,2-DIHYDROPYRIDINE-3-CARBOXAMIDE DERIVATIVES” (Flinder Therapeutics B.V., priority 2022, published 2026).

Experiments:
NF-κB signaling pathway = experiment: Cell-based dual luciferase NF-κB reporter assay (HEK293 cells, TNF stimulated); conditions: Homo sapiens, HEK293
In short: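 HEK293 cells transfected with Firefly luciferase and NF-κB-response-element NanoLuc plasmids; compounds at 100–0.005 µM in 1% DMSO. Cells stimulated with 2.5 ng/mL TNF 30 min after compound addition. Firefly and NanoLuc activities read after 6 h by Nano-Glo dual-luciferase detection.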

[1] = biological target: T1, human E3 ubiquitin-protein ligase RNF31 (HOIP) (Homo sapiens, UniProt Q96EP0); experiment: Cell-free HTRF-based HOIP inhibition assay; type: biochemical
T1 sequence (Q96EP0 695-1072 limits assumed): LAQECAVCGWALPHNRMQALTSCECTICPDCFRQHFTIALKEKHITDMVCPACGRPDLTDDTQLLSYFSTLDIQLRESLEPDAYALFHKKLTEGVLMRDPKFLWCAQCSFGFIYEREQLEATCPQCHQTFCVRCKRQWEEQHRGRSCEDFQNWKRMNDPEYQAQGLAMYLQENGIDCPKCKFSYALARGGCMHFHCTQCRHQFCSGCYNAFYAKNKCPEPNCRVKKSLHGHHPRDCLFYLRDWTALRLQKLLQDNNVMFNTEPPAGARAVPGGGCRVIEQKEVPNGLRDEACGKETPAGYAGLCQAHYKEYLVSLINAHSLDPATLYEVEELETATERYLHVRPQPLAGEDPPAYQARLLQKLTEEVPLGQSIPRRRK
In short: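 HTRF read (ex 337 nm; em 665 and 620 nm) after a 2.5 h, 25° C. ubiquitination step started by adding E2 plus substrates. Before that, E. coli-expressed human HOIP fragment and E1 were incubated 1 h at 25° C. with compound at 100-0.005 μM, 1% DMSO final.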

[2] = system: bladder carcinoma RT4 cell line; experiment: TNF-α-induced cytotoxicity assay (CellTiter-Glo viability); type: cell-based; conditions: Homo sapiens, RT-4, 72 h
In short: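 RT4 bladder carcinoma cells, 1000 per well, stimulated with 1.25 ng/mL TNFα together with compound for 72 h at 37° C., 5% CO2. Viability read by CellTiter-Glo luminescence, proportional to cellular ATP, as a measure of HOIP-dependent cytotoxicity.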

Work on `O=C(NC/C=C/S(=O)(=O)c1ccccc1)c1cc2c([nH]c1=O)CCN(C(=O)OCC(F)F)C2` [Example 77, 2,2-Difluoroethyl 3-{[(2E)-3-(benzenesulfonyl)prop-2-en-1-yl]carbamoyl}-2-oxo-1,2,5,6,7,8-hexahydro-1,6-naphthyridine-6-carboxylate] yielded an IC50 (NF-κB signaling pathway) of at most 1 µM, an IC50 [1] of at most 0.1 µM and an IC50 [2] of at most 10 µM.
For `O=C(NC/C=C/S(=O)(=O)c1ccccc1)c1cc2c([nH]c1=O)CCN(C(=O)c1cnn(-c3ccccc3)n1)C2` [Example 112, N-[(2E)-3-(benzenesulfonyl)prop-2-en-1-yl]-2-oxo-6-(2-phenyl-2H-1,2,3-triazole-4-carbonyl)-1,2,5,6,7,8-hexahydro-1,6-naphthyridine-3-carboxamide], the IC50 (NF-κB signaling pathway) was at most 10 µM, the IC50 [1] was at most 1 µM and the IC50 [2] was at most 10 µM.
With `N=S(=O)(/C=C/CNC(=O)c1cc2c([nH]c1=O)CCCC2)c1ccc(F)cc1` (stereo not drawn) [Example 6, N-[(2E)-3-[(4-fluorophenyl)(imino)oxo-λ^6-sulfanyl]prop-2-en-1-yl]-2-oxo-1,2,5,6,7,8-hexahydroquinoline-3-carboxamide] the IC50 (NF-κB signaling pathway) was at most 10 µM, the IC50 [1] was at most 1 µM and the IC50 [2] was at most 1 µM.
Work on `O=C(NC/C=C/S(=O)(=O)c1ccc(F)cc1F)c1cc2c([nH]c1=O)CCC2` [Example 42, N-[(2E)-3-(2,4-difluorobenzenesulfonyl)prop-2-en-1-yl]-2-oxo-1H,2H,5H,6H,7H-cyclopenta[b]pyridine-3-carboxamide] yielded an IC50 (NF-κB signaling pathway) of at most 10 µM, an IC50 [1] of at most 1 µM and an IC50 [2] of at most 1 µM.
In the case of `O=C(NC/C=C/S(=O)(=O)c1ccccc1)c1cc2c([nH]c1=O)CCN(Cc1ccccc1)C2` [Example 8, N-[(2E)-3-(benzenesulfonyl)prop-2-en-1-yl]-6-benzyl-2-oxo-1,2,5,6,7,8-hexahydro-1,6-naphthyridine-3-carboxamide], the IC50 (NF-κB signaling pathway) is reported as at most 1 µM, the IC50 [1] is reported as at most 1 µM and the IC50 [2] is reported as at most 1 µM.
With `O=C(NC/C=C\S(=O)(=O)c1ccccc1)c1cc2c([nH]c1=O)CCCC2` [Example 9, N-[(2Z)-3-(benzenesulfonyl)prop-2-en-1-yl]-2-oxo-1,2,5,6,7,8-hexahydroquinoline-3-carboxamide] the IC50 (NF-κB signaling pathway) was at most 10 µM, the IC50 [1] was at most 1 µM and the IC50 [2] was at most 10 µM.
For `O=C(NC/C=C/S(=O)(=O)c1ccc(Br)cc1)c1cc2c([nH]c1=O)CCCC2` [Example 5, N-[(2E)-3-(4-bromobenzenesulfonyl)prop-2-en-1-yl]-2-oxo-1,2,5,6,7,8-hexahydroquinoline-3-carboxamide], the IC50 (NF-κB signaling pathway) was at most 1 µM, the IC50 [1] was at most 0.1 µM and the IC50 [2] was at most 1 µM.
For `COc1ccc(S(=N)(=O)/C=C/CNC(=O)c2cc3c([nH]c2=O)CCN(Cc2ccccc2)C3)cc1F` (stereo not drawn) [Example 153, 6-benzyl-N-[(2E)-3-[(3-fluoro-4-methoxyphenyl)(imino)oxo-A*-sulfanyl]prop-2-en-1-yl]-2-oxo-1,2,5,6,7,8-hexahydro-1,6-naphthyridine-3-carboxamide], the IC50 (NF-κB signaling pathway) was at most 1 µM, the IC50 [1] was at most 1 µM and the IC50 [2] was at most 1 µM.
Compound `CO[C@H]1CC[C@H](C(=O)N2CCc3[nH]c(=O)c(C(=O)NC/C=C/S(=O)(=O)c4ccccc4)cc3C2)CC1` [Example 107, N-[(2E)-3-(benzenesulfonyl)prop-2-en-1-yl]-2-oxo-6-[(1r,4r)-4-methoxycyclohexanecarbonyl]-1,2,5,6,7,8-hexahydro-1,6-naphthyridine-3-carboxamide] has an IC50 (NF-κB signaling pathway) of at most 100 µM, an IC50 [1] of at most 1 µM and an IC50 [2] of at most 100 µM.
With `COc1ccc(S(=N)(=O)/C=C/CNC(=O)c2cc3c([nH]c2=O)CCN(C(=O)OCCF)C3)cc1F` (stereo not drawn) [Example 180, 2-fluoroethyl 3-{[(2E)-3-[(3-fluoro-4-methoxyphenyl)(imino)oxo-λ^6-sulfanyl]prop-2-en-1-yl]carbamoyl}-2-oxo-1,2,5,6,7,8-hexahydro-1,6-naphthyridine-6-carboxylate] the IC50 (NF-κB signaling pathway) was at most 10 µM, the IC50 [1] was at most 0.1 µM and the IC50 [2] was at most 10 µM.
